In patent publication US8535740B2, “Compositions from Nigella sativa” (priority 2002, dated 2013):
Marks after values point to notes of the source that are not given here.

Assays:
[1] = test system: prostate specific antigen (PSA) secretion from LNCaP prostate cells; experiment: Prostate specific antigen secretion from LNCaP prostate cells; format: cell-based, human; conditions: for Effect on PSA Secretion over 24 Hours: LNCaP cells; for PSA secretion: 24 hours
Excerpt: Chemicals—PSA was quantified from the cell culture supernatant fluid using the Quantikine Human KLK3/PSA Immunoassay kit (R&D Systems, Inc., Minnaepolis, Minn.). All other materials used in this example were purchased from Sigma (St. Louis, Mo.) or otherwise noted and were of the highest purity commercially available. The N. sativa samples used in this study were those commercial-scale extracts described in Example 1. Cell culture and treatment—The LNCaP prostate cell line, which produces PSA, was used to study the effects of commercial-scale N. sativa scale extracts of Example 1 and pure TQ on the secretion of PSA. LNCaP cells were purchased from the American Type Culture Collection (ATCC, Manassas, Va.) and sub-cultured according to instructions supplied by ATCC. Prior to experiments, cells were cultured in DMEM containing 10% FBS-HI added 50 units penicillin/ml and 50 μg streptomycin/ml, and maintained in log phase prior to experimental setup. Cells were grown in a 5% CO2 humidified incubator at 37° C. Components of medium included: (1) 10% FBS/DMEM (Fetal Bovine Serum/Dulbecco's Modified Eagle's Medium) containing 4.5 g glucose/L; (2) 50 U/ml penicillin; and (3) 50 μg/ml streptomycin. Growth medium was made by adding 50 ml of heat inactivated FBS and 5 ml of penicillin/streptomycin to 500 ml DMEM. This medium was stored at 4° C. Before use, the medium was warmed to 37° C. in a water bath. LNCaP cells were seeded at an initial density of 6×10^4 cells/cm^2 in 96-well plates. For two days, the cells were allowed grow to reach confluence. On day three post seeding, cells were treated with TQ, NS8, NS9, NS10, Spent#1, and NSSpent#2 at the concentrations listed in FIGS. 5, 6 and 7. Twenty-four hours later, the supernatant media were sampled and assayed for PSA.

[2] = test system: Caco-2 monolayers; experiment: LPS/H2O2-mediated loss of transepithelial electrical resistance in Caco-2 monolayers; format: cell-based, human
Excerpt: Caco-2 Cells—The protocol for growing and differentiation the human Caco-2 colon andenocarcinoma cells was a modification of Protocol 3 as described by Yamashita et al. [Yamashita, S., Konishi, K., Yamazaki, Y., Taki, Y., Sakane, T., Sezaki, H., and Furuyama, Y. (2002) New and better protocols for a short-term Caco-2 cell culture system, J Pharm Sci 91, 669-679]. Caco-2 Human Colon Adenocarcinoma cells were obtained from ATCC (Rockville, Md.; catalog #HTB-37) and maintained in a growth media: DMEM (Dulbecco's Modified Eagles Medium 1×) containing L-glutamine, glucose; Cellgro catalog #35-010CV with the following additions: (1) Penicillin (5,000 IU/mL)/Streptomycin (5,000 μg/mL) Cellgro catalog #30-001C1, (2) 10% FBS—Fetal Bovine Serum, Characterized; Hyclone catalog #SH30071.3, and (3) 1% NEAA—Non Essential Amino Acids; Cellgro catalog #25-025-CI; cells were cultured at 37 C in a humidified air-5% CO2 atmosphere in T175 flasks.
Differentiation of Caco-2 cells to intestinal epithelial cells—BIOCOAT^R HTS Caco-2 Assay System kits (Becton Dickinson, N.J.; catalog #354801) consisting of 24-well fibrillar collagen coated inserts and feeder trays were used in all experiments and plated as follows. Media was removed from the T175 flasks and cells were washed with 10 mLs PBS (phosphate buffered saline 1× without Ca^++, without Mg^++; Cellgro #25-053-CI). […]

[3] = test system: adiponectin secretion in 3T3-L1 adipocytes; experiment: Adiponectin secretion in t10-CLA-stimulated 3T3-L1 adipocytes; format: cell-based, murine
Method: Treatment—Test materials were added four hours prior to the addition of t10-CLA at a concentration of 50 μM. Following overnight incubation, the supernatant media were sampled for determination of IL-6 and adiponectin. Adiponectin assay—The adiponectin secreted into the medium was quantified using the Mouse Adiponectin Quantikine® Immunoassay kit with no modifications (R&D Systems, Minneapolis, Minn.). […] Statistical Calculations and Interpretation—Test materials and were assayed in duplicate, while solvent controls were replicated eight times. IL-6 and adiponectin secretion were represented relative to the IL-6 and adiponectin secretion of the t10-CLA only controls as the IL-6 and adiponectin index and differences among the means were analyzed by the student's t-test assuming a five percent probability of a type I error (Excel; Microsoft, Redmond, Wash.).

Structure (SMILES): CC1=CC(=O)C(C(C)C)=CC1=O [Thymoquinone (Sigma), thymoquinone]
- Effect on PSA Secretion over 24 Hours [1]: Decreased PSA at 5 and 10 μg/mL, dramatic increase
- Effect on PSA Secretion over 24 Hours ([1]; listed as TQ): decreased PSA only at the two lowest doses tested
- PSA secretion ([1]; highest dose (100 μg/mL per Table 4)): 207%
- PSA secretion ([1]; second highest dose (50 μg/mL per Table 4)): 166%
- Relative Loss of TEER ([2]; 10 uM H2O2 + 50 μg/mL LPS, three hours, positive control set to 100, each material at its tabulated concentration (TQ 5.0, NS8 0.11, NS9 0.99, NS10 0.012, NSSpent#2 0.0005 μg TQ equivalents/mL; Spent#1 5 μg/mL)): 111
- effect on LPS/H2O2-mediated loss of TEER ([2]; concentrations of Table 6): no effect
- effect on t10-CLA-stimulated decrease of adiponectin secretion ([3]; concentrations of Table 8): attenuated t10-CLA-stimulated decrease of adiponectin secretion
- Adiponectin Index ([3]; relative to t10-CLA only control (100), 50 μM t10-CLA, overnight, each material at its tabulated concentration): 128*
